Test results taken from ChEMBL document CHEMBL5727878, “Triazole furan compounds as agonists of the APJ receptor” (2020).
Several values for one entry are separate records, joined by “and”; a condition that tells them apart may be missing. Identical values can stand only once.

Biological target: T1, Apelin receptor (Homo sapiens, UniProt P35414)
T1 sequence (P35414 whole entry): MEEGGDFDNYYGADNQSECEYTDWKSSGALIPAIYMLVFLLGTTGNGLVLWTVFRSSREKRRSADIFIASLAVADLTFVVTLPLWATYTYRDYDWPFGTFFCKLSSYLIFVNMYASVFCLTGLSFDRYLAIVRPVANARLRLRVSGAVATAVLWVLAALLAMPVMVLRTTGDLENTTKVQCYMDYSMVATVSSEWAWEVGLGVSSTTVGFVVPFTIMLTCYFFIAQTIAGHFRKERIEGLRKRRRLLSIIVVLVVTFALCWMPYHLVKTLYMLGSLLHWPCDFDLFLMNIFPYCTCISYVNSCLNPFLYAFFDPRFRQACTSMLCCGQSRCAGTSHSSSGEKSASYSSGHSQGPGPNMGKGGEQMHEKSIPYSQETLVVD
Experiment: GTPγS Binding: The human APJ receptor was cloned by polymerase chain reaction and the gene encoding the receptor was subcloned in pFLAG-CMV-3 expression vector (Sigma, Saint Louis, Mo. USA) in-house at Amgen. A GTPγS binding assay was performed on membranes prepared from CHO cells stably expressing human APJ receptor. The optimum experimental conditions for the concentrations of GDP, MgCl2, and NaCl in the assay buffer were initially determined. The assay was performed in assay buffer [20 mM HEPES, pH 7.5, 5 mM MgCl2, and 0.1% (w/v) BSA with 200 mM NaCl, 3 μM GDP] and membranes expressing human APJ receptor/well along with WGA PS beads. The reaction was initiated by addition of 0.2 nM [35S]GTPγS in the absence or presence of various ligands and incubated at RT for 90 min. Nonspecific binding was determined in the presence of 100 μM GTPγS and was always less than 0.2% of total binding.

Row | SMILES | EC50
1 | COc1cccc(OC)c1-n1c(NS(=O)(=O)CCc2ccc(F)cn2)nnc1-c1ccco1 | 12 nM
2 | COc1cccc(OC)c1-n1c(NS(=O)(=O)[C@@H](C)[C@@H](O)c2cccc3ccnn23)nnc1-c1ccc(C)o1 | 0.79 nM and 0.87 nM
3 | COc1cccc(OC)c1-n1c(NS(=O)(=O)CCc2ncc(F)cn2)nnc1-c1ccco1 | 3.2 nM
4 | COc1cccc(OC)c1-n1c(NS(=O)(=O)CCc2ncc(Cl)cc2C2=CCN(C(C)=O)CC2)nnc1-c1ccco1 | 0.32 nM
5 | COCn1cnc2c(C[C@H](C)S(=O)(=O)Nc3nnc(-c4ccco4)n3-c3c(OC)cccc3OC)ncc(F)c21 (mixture of isomers) | 0.77 nM
6 | COc1cccc(OC)c1-n1c(NS(=O)(=O)[C@H](C)[C@@H](O)c2cc3ccccn3n2)nnc1-c1ccc(C)o1 (mixture of isomers) | 0.65 nM
7 | COc1cccc(OC)c1-n1c(NS(=O)(=O)[C@H](C)[C@H](O)c2cscn2)nnc1-c1ccc(C)o1 (mixture of isomers) | 16 nM
8 | COc1cccc(OC)c1-n1c(NS(=O)(=O)[C@@H]2C[C@@H](C(=O)N3CCC3)CN(c3ncc(F)cn3)C2)nnc1-c1ccc(C)o1 (mixture of isomers) | 0.32 nM
9 | COc1cccc(OC)c1-n1c(NS(=O)(=O)[C@@H](C)Cc2ncc(F)cc2N2C[C@H](O)CC2=O)nnc1-c1ccco1 (mixture of isomers) | 0.61 nM
10 | COc1cccc(OC)c1-n1c(NS(=O)(=O)C[C@H](O)c2ccc(F)cn2)nnc1-c1ccc(C)o1 (mixture of isomers) | 0.17 nM
11 | COc1cccc(OC)c1-n1c(NS(=O)(=O)[C@H](C)Cc2ncc(F)cn2)nnc1-c1ccco1 (mixture of isomers) | 0.29 nM
12 | COc1cccc(OC)c1-n1c(NS(=O)(=O)[C@H]2C[C@@H](C(=O)N3CCC3)CN(c3ncc(F)cn3)C2)nnc1-c1ccc(C)o1 (mixture of isomers) | 0.35 nM
13 | COc1cccc(OC)c1-n1c(NS(=O)(=O)[C@@H](C)[C@H](OC)c2ccc(C#N)cc2C#N)nnc1-c1ccc(C)o1 (mixture of isomers) | 0.21 nM
14 | COc1cccc(OC)c1-n1c(NS(=O)(=O)[C@H]2CCC[C@@H]2c2ncc(F)cn2)nnc1-c1ccc(C)o1 (mixture of isomers) | 2 nM
15 | COc1ncnc(OC)c1-n1c(NS(=O)(=O)[C@@H](C)Cc2ncc(F)cn2)nnc1-c1ccc(C)o1 (mixture of isomers) | 3 nM
16 | COc1cccc(OC)c1-n1c(NS(=O)(=O)C[C@@](C)(O)c2ncc(C#N)cn2)nnc1-c1ccc(C)o1 (mixture of isomers) | 0.65 nM
17 | COc1cccc(OC)c1-n1c(NS(=O)(=O)[C@@H](C)[C@H](C)c2cnc(C)c[n+]2[O-])nnc1-c1ccc(C)o1 (mixture of isomers) | 0.14 nM
18 | COc1cccc(OC)c1-n1c(NS(=O)(=O)[C@H](C)[C@@H](O)c2ccnc3c2OCCC3)nnc1-c1ccc(C)o1 (mixture of isomers) | 13 nM
19 | COc1cccc(OC)c1-n1c(NS(=O)(=O)[C@@H](C)[C@@H](OC)c2cn3ccccc3n2)nnc1-c1ccc(C)o1 (mixture of isomers) | 0.96 nM
20 | COc1cccc(OC)c1-n1c(NS(=O)(=O)[C@@H](C)[C@H](O)c2cscn2)nnc1-c1ccc(C)o1 (mixture of isomers) | 1.2 nM
21 | Cc1ccc(-c2nnc(NS(=O)(=O)[C@@H](C)Cc3ncc(F)cn3)n2C2CCCC2)o1 (mixture of isomers) | 270 nM
22 | COc1cnc([C@@H](O)[C@H](C)S(=O)(=O)Nc2nnc(-c3ccc(C)o3)n2-c2c(OC)cccc2OC)cn1 (mixture of isomers) | 0.25 nM
23 | CCc1ccc(-c2nnc(NS(=O)(=O)[C@@H](C)Cc3ncc(F)cn3)n2-c2c(OC)cccc2OC)o1 (mixture of isomers) | 0.13 nM
24 | COc1cccc(OC)c1-n1c(NS(=O)(=O)[C@@H]2CCCC[C@H]2c2ncc(F)cn2)nnc1-c1ccco1 (single isomer, unassigned) | 30 nM
25 | COc1cccc(OC)c1-n1c(NS(=O)(=O)[C@@H]2C[C@H](c3ccc(F)cc3)CN(C(C)=O)C2)nnc1-c1ccc(C)o1 (single isomer, unassigned) | 1.1 nM
26 | COc1cccc(OC)c1-n1c(NS(=O)(=O)[C@H](C)[C@](C)(O)c2ncc(F)cn2)nnc1-c1ccc(C)o1 (single isomer, unassigned) | 0.57 nM
27 | COc1cccc(OC)c1-n1c(NS(=O)(=O)[C@@H]2C[C@@H](c3ccc(F)cc3)CN(C(C)=O)C2)nnc1-c1ccc(C)o1 (single isomer, unassigned) | 0.75 nM
28 | COc1cccc(OC)c1-n1c(NS(=O)(=O)[C@@H](C)[C@@H](OCCO)c2ncc(C)cn2)nnc1-c1ccc(C)o1 (single isomer, unassigned) | 0.15 nM

Row | SMILES | EC50
29 | COc1cccc(OC)c1-n1c(NS(=O)(=O)C[C@H](O)c2ccc(Cl)cc2S(C)(=O)=O)nnc1-c1ccc(C)o1 (single isomer, unassigned) | 0.09 nM
30 | COc1cccc(OC)c1-n1c(NS(=O)(=O)[C@H]2CCCN(c3ncc(F)cn3)C2)nnc1-c1ccc(C)o1 (single isomer, unassigned) | 3.2 nM
31 | COc1cccc(OC)c1-n1c(NS(=O)(=O)[C@@H](C)Cc2ncc(F)c3[nH]cnc23)nnc1-c1ccco1 (single isomer, unassigned) | 28 nM
32 | COc1cccc(OC)c1-n1c(NS(=O)(=O)[C@H](C)[C@@H](O)c2cnc(C)cn2)nnc1-c1ccc(C)o1 (single isomer, unassigned) | 1.5 nM
33 | CCc1cnc([C@@H](C)[C@H](C)S(=O)(=O)Nc2nnc(-c3ccc(C)o3)n2-c2c(OC)cccc2OC)nc1 (single isomer, unassigned) | 3.4 nM
34 | COc1cccc(OC)c1-n1c(NS(=O)(=O)[C@H]2COC[C@@H]2c2ncc(F)cn2)nnc1-c1ccco1 (single isomer, unassigned) | 28 nM
35 | COc1cccc(OC)c1-n1c(NS(=O)(=O)C[C@H](O)c2ccc(F)cn2)nnc1-c1ccc(C)o1 (single isomer, unassigned) | 0.29 nM
36 | COc1cccc(OC)c1-n1c(NS(=O)(=O)[C@@H](C)[C@@H](O)c2ncn3ccccc23)nnc1-c1ccc(C)o1 (single isomer, unassigned) | 1.4 nM
37 | COC[C@@H]1CCCC(=O)N1CCS(=O)(=O)Nc1nnc(-c2ccco2)n1-c1c(OC)cccc1OC (single isomer, unassigned) | 2.1 nM
38 | COC[C@H]1CCCC(=O)N1C[C@@H](C)S(=O)(=O)Nc1nnc(-c2ccc(C)o2)n1-c1c(OC)cccc1OC (single isomer, unassigned) | 0.48 nM
39 | COc1cccc(OC)c1-n1c(NS(=O)(=O)[C@@H](C)[C@@H](O)c2coc(C)n2)nnc1-c1ccc(C)o1 (single isomer, unassigned) | 8.3 nM
40 | COc1cccc(OC)c1-n1c(NS(=O)(=O)CCN2C(=O)CCC[C@@H]2C)nnc1-c1ccco1 (single isomer, unassigned) | 1 nM
41 | COc1cccc(OC)c1-n1c(NS(=O)(=O)[C@@H]2CCC[C@H]2c2ncc(F)cn2)nnc1-c1ccc(C)o1 (single isomer, unassigned) | 2.8 nM
42 | COc1cccc(OC)c1-n1c(NS(=O)(=O)C[C@@H](C)c2ncc(C)cn2)nnc1-c1ccco1 (single isomer, unassigned) | 6.7 nM
43 | COc1cccc(OC)c1-n1c(NS(=O)(=O)[C@@H](C)Cc2ncc(Br)cn2)nnc1-c1ccco1 (single isomer, unassigned) | 0.31 nM
44 | COc1cccc(OC)c1-n1c(NS(=O)(=O)[C@H]2C[C@@H](O)CN(c3cc(C#N)ccn3)C2)nnc1-c1ccc(C)o1 (single isomer, unassigned) | 0.17 nM
45 | COc1cccc(OC)c1-n1c(NS(=O)(=O)[C@H](C)Cc2ncc(F)cc2NC(C)=O)nnc1-c1ccco1 (single isomer, unassigned) | 0.21 nM
46 | COc1cccc(OC)c1-n1c(NS(=O)(=O)[C@@H](C)[C@@H](O)c2ncc(F)cn2)nnc1-c1ccc(C)o1 (single isomer, unassigned) | 0.32 nM
47 | COc1cccc(OC)c1-n1c(NS(=O)(=O)[C@@H](C)[C@H](O)c2cc3n(n2)CCCO3)nnc1-c1ccc(C)o1 (single isomer, unassigned) | 1.2 nM
48 | COc1cccc(OC)c1-n1c(NS(=O)(=O)[C@@H](C)[C@@H](O)c2cnc3ccccn23)nnc1-c1ccc(C)o1 (single isomer, unassigned) | 0.96 nM
49 | COc1cccc(OC)c1-n1c(NS(=O)(=O)[C@@H](C)[C@H](O)c2cc3ccccn3n2)nnc1-c1ccc(C)o1 (single isomer, unassigned) | 3.7 nM
50 | COc1cccc(OC)c1-n1c(NS(=O)(=O)[C@H]2CCCC[C@H]2c2ncc(F)cn2)nnc1-c1ccco1 (single isomer, unassigned) | 4.5 nM
51 | COc1cccc(OC)c1-n1c(NS(=O)(=O)[C@@H](C)[C@@H](O)c2cn3ccccc3n2)nnc1-c1ccc(C)o1 (single isomer, unassigned) | 1 nM
52 | COc1cccc(OC)c1-n1c(NS(=O)(=O)CCN2C(=O)N(C)CC[C@H]2C)nnc1-c1ccco1 (single isomer, unassigned) | 0.7 nM
53 | COc1cccc(OC)c1-n1c(NS(=O)(=O)[C@@H](C)Cc2ncc(F)c3c2ncn3C)nnc1-c1ccco1 (single isomer, unassigned) | 0.98 nM
54 | COc1cc[nH]c(=O)c1-n1c(NS(=O)(=O)[C@@H](C)[C@H](C)c2ncc(C)cn2)nnc1-c1ccc(C)o1 (single isomer, unassigned; form 1) | 0.75 nM
55 | COc1cc[nH]c(=O)c1-n1c(NS(=O)(=O)[C@@H](C)[C@H](C)c2ncc(F)cn2)nnc1-c1ccc(C)o1 (single isomer, unassigned; form 1) | 0.67 nM
